The text below walks through data of ChEMBL document CHEMBL4177654, “Synthesis, antifungal and antitumor activity of two new types of imidazolin-2-ones” (Bioorg Med Chem, 2017).

The source made the active and inactive calls. The calls are words filed in the database; no cut-off is given here.

The subject of assay [1] is Botrytis cinerea. The assay can be described thus: Antifungal activity against Botrytis cinerea assessed as inhibition of spore germination at 50 ug/ml after 6 hrs by microscopic analysis relative to control. In kind it is functional.
In assay [2] the test system is Botrytis cinerea. In words: Antifungal activity against Botrytis cinerea assessed as inhibition of mycelium growth at 25 ug/ml after 48 hrs relative to control. In kind it is functional.
Assay [3] is described as follows: Inhibition of mTORC2 in human HeLa cells assessed as decrease in AKT phosphorylation at S473 residue preincubated for 1 hr followed by EGF1 stimulation by ELISA. In kind it is cell-based.
The subject of assay [4] is Botrytis cinerea. The assay can be described thus: Antifungal activity against Botrytis cinerea assessed as inhibition of mycelium growth at 5 ug/ml after 48 hrs relative to control. In kind it is functional.
For assay [5], the system named is HeLa. The assay can be described thus: Inhibition of mTORC2 in human HeLa cells assessed as decrease in AKT phosphorylation at S473 residue preincubated for 1 hr followed by EGF1 stimulation after 30 mins by Western blot analysis. In kind it is cell-based. A general note: A western blot detects proteins with antibodies after separation by electrophoresis.
Assay [6] deals with Botrytis cinerea. In words: Antifungal activity against Botrytis cinerea assessed as inhibition of spore germination at 5 ug/ml after 6 hrs by microscopic analysis relative to control. In kind it is functional.

As for `C=C(C)n1c(=O)n(C(=O)CCCCC)c2ccc([N+](=O)[O-])cc21`, the inhibition at 50 µg/mL in assay [1] is 55.9%.
Still for that read-out and setting: in the case of `C=C(C)n1c(=O)n(C(=O)CC)c2cc([N+](=O)[O-])ccc21` it was 45.2%.
Take `C=C(C)n1c(=O)n(C(=O)c2cccc(C)c2)c2cc(Br)cnc21`: the inhibition at 50 µg/mL in assay [1] was determined as 17.4%. In assay [2], the inhibition at 25 µg/mL is 41.5%.
With `NC1(c2ccc(-c3nc4ccn5c(=O)[nH]nc5c4cc3-c3ccccc3)cc2)CCC1` [MK-2206], the IC50 in assay [3] came out at 22.8 nM.
With `C=C(C)n1c(=O)n(C(=O)CCCCCCC)c2cc([N+](=O)[O-])ccc21`, the inhibition at 50 µg/mL in assay [1] was found to be 30.7%.
`C=C(C)n1c(=O)n(C(=O)CCCC)c2cc([N+](=O)[O-])ccc21`: the inhibition at 50 µg/mL in assay [1] was 48.5%. Besides, in assay [2], the inhibition at 25 µg/mL came out at 7.26%.
For `C=C(C)n1c(=O)n(C(=O)c2ccccc2Cl)c2cc(Br)cnc21`, in that order: 13.3% and 17.5%.
For `C=C(C)n1c(=O)n(C(=O)CCCCCCC)c2cc(Br)cnc21`, in that order: 49% and 51.3%.
On to `C=C(C)n1c(=O)n(C(=O)CCC)c2cc(Br)cnc21`, for which the inhibition at 50 µg/mL in assay [1] stood at 99%. In assay [2], the inhibition at 25 µg/mL turned out to be 97.3%.
Taken in the same sequence, the figures for `C=C(C)n1c(=O)n(C(=O)c2ccc(Cl)cc2)c2cc(Br)cnc21` were 28.6% and 54%.
For `C=C(C)n1c(=O)n(C(=O)c2ccccc2)c2cc(Br)cnc21`, in that order: 38.8% and 37.2%.
Taken in the same sequence, the figures for `C=C(C)n1c(=O)n(C(=O)c2cccc(Cl)c2)c2cc(Br)cnc21` were 59.2% and 55.8%.
For the compound `C=C(C)n1c(=O)n(C(=O)c2cccc(C)c2)c2cc([N+](=O)[O-])ccc21`, the inhibition at 50 µg/mL in assay [1] is 60.2%.
Regarding `C=C(C)n1c(=O)n(C(=O)CCCCC)c2cc([N+](=O)[O-])ccc21`, the inhibition at 50 µg/mL in assay [1] was determined as 42.9%. Moreover, the inhibition at 25 µg/mL in assay [2] came out at 5.65%.
For `C=C(C)n1c(=O)n(C(C)=O)c2ccc([N+](=O)[O-])cc21`, the inhibition at 50 µg/mL in assay [1] stood at 100%. Further, the inhibition at 25 µg/mL in assay [2] turned out to be 97.7%.
For `C=C(C)n1c(=O)n(C(C)=O)c2cc([N+](=O)[O-])ccc21`, in that order: 85.2% and 33.5%.
With `C=C(C)n1c(=O)n(C(=O)CC)c2ccc([N+](=O)[O-])cc21`, the inhibition at 50 µg/mL in assay [1] was 49.6%. Also, the inhibition at 25 µg/mL in assay [2] came to 8.72%.
Take `C=C(C)n1c(=O)n(C(=O)c2ccccc2C)c2cc([N+](=O)[O-])ccc21`: the inhibition at 50 µg/mL in assay [1] amounted to 60.8%.
`COC(=O)Nc1nc2ccccc2[nH]1` [CARBENDAZIM]: the inhibition at 5 µg/mL in assay [4] was found to be 94.2%.
Consider `C=C(C)n1c(=O)n(C(=O)c2ccccc2Cl)c2ccc([N+](=O)[O-])cc21`, for which the inhibition at 50 µg/mL in assay [1] was 72.1%. Further, the inhibition at 25 µg/mL in assay [2] was determined as 13.6%.
Consider `C=C(C)n1c(=O)n(C(=O)c2cccc(Cl)c2)c2cc([N+](=O)[O-])ccc21`, for which the inhibition at 50 µg/mL in assay [1] is 63.4%. Besides, the inhibition at 25 µg/mL in assay [2] turned out to be 10.7%.
For `C=C(C)n1c(=O)n(C(=O)C2CC2)c2cc(Br)cnc21`, in that order: 78.6% and 92.8%.
Turning to `C=C(C)n1c(=O)n(C(=O)CCC)c2ccc([N+](=O)[O-])cc21`, in assay [1], the inhibition at 50 µg/mL turned out to be 52.4%.
On to `C=C(C)n1c(=O)n(C(=O)CCl)c2cc(Br)cnc21`, for which, in assay [1], the inhibition at 50 µg/mL is 74.9%. In assay [2], the inhibition at 25 µg/mL came to 69%. Besides, the inhibition result in assay [5] is “Active”.
Take `C=C(C)n1c(=O)n(C(=O)c2cccc(Cl)c2)c2ccc([N+](=O)[O-])cc21`: the inhibition at 50 µg/mL in assay [1] was found to be 86.2%. Further, the inhibition at 25 µg/mL in assay [2] is 16.7%.
On to `C=C(C)n1c(=O)n(C(=O)Cc2ccccc2)c2cc(Br)cnc21`, for which the inhibition at 50 µg/mL in assay [1] was 59.2%. For the same compound, in assay [2], the inhibition at 25 µg/mL turned out to be 66.7%. Further, in assay [5], the inhibition entry is “Active”.
Take `C=C(C)n1c(=O)n(C(=O)CCCCC)c2cc(Br)cnc21`: in assay [1], the inhibition at 50 µg/mL amounted to 23.5%. Moreover, in assay [2], the inhibition at 25 µg/mL is 42.5%.
`C=C(C)n1c(=O)n(C(=O)CCC)c2cc([N+](=O)[O-])ccc21`: the inhibition at 50 µg/mL in assay [1] came out at 46.7%.
On the same count and under the same terms, in the case of `C=C(C)n1c(=O)n(C(=O)c2ccccc2Cl)c2cc([N+](=O)[O-])ccc21` it was 59.2%; in that of `C=C(C)n1c(=O)n(C(=O)CCCC)c2ccc([N+](=O)[O-])cc21`, 51.8%.
For `C=C(C)n1c(=O)n(C(=O)CC)c2cc(Br)cnc21`, in assay [1], the inhibition at 50 µg/mL amounted to 98%. Also, the inhibition at 25 µg/mL in assay [2] was found to be 94.2%.
Consider `C=C(C)n1c(=O)n(C(=O)CCCCCC)c2cc(Br)cnc21`, for which the inhibition at 50 µg/mL in assay [1] came out at 59.2%. The inhibition at 25 µg/mL in assay [2] worked out at 44.9%.
For `C=C(C)n1c(=O)n(C(=O)c2ccccc2C)c2ccc([N+](=O)[O-])cc21`, in that order: 68.3% and 18.5%.
In the case of `C=C(C)n1c(=O)n(C(=O)CCCC)c2cc(Br)cnc21`, in assay [1], the inhibition at 50 µg/mL is 59.2%. In addition, the inhibition at 25 µg/mL in assay [2] is 60.1%.
`C=C(C)n1c(=O)n(C(=O)CCCCCCC)c2ccc([N+](=O)[O-])cc21`: the inhibition at 50 µg/mL in assay [1] was determined as 32.5%.
For the compound `CO/C=C(/C(=O)OC)c1ccccc1Oc1cc(Oc2ccccc2C#N)ncn1` [AZOXYSTROBIN], the inhibition at 5 µg/mL in assay [6] was determined as 92.1%; in assay [4] it was 98.8%.
With `C=C(C)n1c(=O)n(C(=O)c2cccc(C)c2)c2ccc([N+](=O)[O-])cc21`, the inhibition at 50 µg/mL in assay [1] came out at 65.8%. Also, the inhibition at 25 µg/mL in assay [2] was 11.4%.
Consider `C=C(C)n1c(=O)n(C(=O)c2ccccc2C)c2cc(Br)cnc21`, for which the inhibition at 50 µg/mL in assay [1] was 49%. The inhibition at 25 µg/mL in assay [2] came out at 53.7%.

One may read the inhibition as how much of the control response was suppressed. The IC50 is the midpoint of a concentration-inhibition curve.
